Experimental data taken from the supplement of paper PMC11208160.

Test: recombinant barcode read abundance after kanamycin selection (control-corrected) (log10(CPM+1)); higher = more efficient recombination; sequences stand for … in AGTGCAGAGAAAATCGGCCAGTTTTCTCTGCCTGCAGTCCGCATGCCGT…AGATTTATGCAGCGGACTGCCTTTCTCCCAAAGTGATAAACCGGACAGTATCATGGACCGGTTTTCCCGGTAATCCGTATTTGCAAGGTTGGTTTCACT; site = the 11-nt target
How it was run: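 In E. coli, a pooled library matched targets to IS621 bridge RNA target-binding loops and was introduced alongside a donor plasmid. Cells went onto chloramphenicol/ampicillin/kanamycin with 0.1 mM IPTG or onto chloramphenicol/ampicillin LB agar as control, in duplicate. Recombination efficiency, from recombinant-junction barcodes as counts per million, is averaged and control-corrected. It is reported as log10(CPM+1).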
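Note: IS621 recombinase and bridge RNA in Escherichia coli cells.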

Sequence	recombinant barcode read abundance (log10)
TCAGCCTCTTGGGTTCTAACCTGTTGCCT (site TCAGCCTCTAG)	1.72
TCAGCGACTTGGGTTCTAACCTGTTGCCT (site TCAGCGACTAG)	0.481
TCAGCGACTTGGGTTCTAACCTGTTGCCT (site TCCGCGACTAG)	0.139
TCAGCGACTTGGGTTCTAACCTGTTGCCT (site TCGGCGACTAG)	0.27
TCAGCGACTTGGGTTCTAACCTGTTGCCT (site TCTGCGACTAG)	0.39
TCAGGAGCTTGGGTTCTAACCTGTTGCTA (site CATATGACTAG)	0.288
TCAGGAGCTTGGGTTCTAACCTGTTGCTA (site TCAGGAGCTTA)	0.325
TCATAGCCTTGGGTTCTAACCTGTTGCTG (site TCAAAGCCTCA)	0.131
TCATAGCCTTGGGTTCTAACCTGTTGCTG (site TCACAGCCTCA)	0.0283
TCATAGCCTTGGGTTCTAACCTGTTGCTG (site TCAGAGCCTCA)	0.087
TCATAGCCTTGGGTTCTAACCTGTTGCTG (site TCATAGCCTCA)	0.62
TCATATTCTTGGGTTCTAACCTGTTGCCT (site TCAAATTCTAG)	0.17
TCATATTCTTGGGTTCTAACCTGTTGCCT (site TCACATTCTAG)	0.0604
TCATATTCTTGGGTTCTAACCTGTTGCCT (site TCAGATTCTAG)	0.069
TCATATTCTTGGGTTCTAACCTGTTGCCT (site TCATATTCTAG)	0.0782
TCATGAACTTGGGTTCTAACCTGTTGCCT (site TCATGAACTAG)	0.256
TCATGAACTTGGGTTCTAACCTGTTGCCT (site TTATGATCTAG)	0.0186
TCATTAGCTTGGGTTCTAACCTGTTGCCG (site GGGCATCCTAT)	0.0935
TCATTAGCTTGGGTTCTAACCTGTTGCCG (site TCATTAGCTCG)	0.315
TCATTCGCTTGGGTTCTAACCTGTTGCCT (site TCATTCGCTAG)	0.857
TCATTCGCTTGGGTTCTAACCTGTTGCCT (site TCCTTAGCTAG)	0.186
TCCAAACCTTGGGTTCTAACCTGTTGCGG (site TCCAAACCTCC)	2.04

Sequence	recombinant barcode read abundance (log10)
TCCAAACCTTGGGTTCTAACCTGTTGCGG (site TCCAACACTCC)	0.00629
TCCAGTCCTTGGGTTCTAACCTGTTGCTA (site TCCAGTCCTTA)	0.688
TCCAGTCCTTGGGTTCTAACCTGTTGCTA (site TCCATCCCTTA)	0.0632
TCCCAAACTTGGGTTCTAACCTGTTGCAC (site CTAACTGCTAC)	0.0667
TCCCAAACTTGGGTTCTAACCTGTTGCAC (site TCCCAAACTGT)	0.657
TCCCACACTTGGGTTCTAACCTGTTGCCA (site ACCCACACTCG)	0.129
TCCCACACTTGGGTTCTAACCTGTTGCCA (site TCCCACACTTG)	1.33
TCCCAGCCTTGGGTTCTAACCTGTTGCTG (site TCCCAGCCTCA)	0.0849
TCCCAGCCTTGGGTTCTAACCTGTTGCTG (site TCCCATCCTAA)	0.274
TCCCATCCTTGGGTTCTAACCTGTTGCTT (site TCCCAGCCTCA)	0.524
TCCCATCCTTGGGTTCTAACCTGTTGCTT (site TCCCATCCTAA)	0.114
TCCCATGCTTGGGTTCTAACCTGTTGCCT (site TCCCATACTAG)	0.19
TCCCATGCTTGGGTTCTAACCTGTTGCCT (site TCCCATCCTAG)	0.151
TCCCATGCTTGGGTTCTAACCTGTTGCCT (site TCCCATGCTAG)	1.17
TCCCATGCTTGGGTTCTAACCTGTTGCCT (site TCCCATTCTAG)	0.0569
TCCCCGACTTGGGTTCTAACCTGTTGCCG (site TCCCCGACTCG)	1.03
TCCCCGACTTGGGTTCTAACCTGTTGCCG (site TCGCCTACTCG)	0.03
TCCCCGGCTTGGGTTCTAACCTGTTGCGG (site CAAAACTCTAA)	0.262
TCCCCGGCTTGGGTTCTAACCTGTTGCGG (site TCCCCGGCTCC)	1.48
TCCCGATCTTGGGTTCTAACCTGTTGCCT (site TCCCGAACTAG)	0.0997
TCCCGATCTTGGGTTCTAACCTGTTGCCT (site TCCCGACCTAG)	0.521
TCCCGATCTTGGGTTCTAACCTGTTGCCT (site TCCCGAGCTAG)	0.065

Sequence	recombinant barcode read abundance (log10)
TCCCGATCTTGGGTTCTAACCTGTTGCCT (site TCCCGATCTAG)	0.502
TCCCTTCCTTGGGTTCTAACCTGTTGCCT (site TCCCGTCCTAG)	0.0443
TCCCTTCCTTGGGTTCTAACCTGTTGCCT (site TCCCTTCCTAG)	0.365
TCCGAAGCTTGGGTTCTAACCTGTTGCCT (site GACGAAGCTAG)	0.444
TCCGAAGCTTGGGTTCTAACCTGTTGCCT (site TCCGAAGCTAG)	0.487
TCCGACTCTTGGGTTCTAACCTGTTGCCG (site TCCGACTCTCG)	1.55
TCCGACTCTTGGGTTCTAACCTGTTGCCG (site TCCTACTCTCG)	0.122
TCCGAGACTTGGGTTCTAACCTGTTGCCA (site TCCGAGACTAG)	0.598
TCCGAGACTTGGGTTCTAACCTGTTGCCA (site TCCGAGACTCG)	0.208
TCCGAGACTTGGGTTCTAACCTGTTGCCA (site TCCGAGACTGG)	0.176
TCCGAGACTTGGGTTCTAACCTGTTGCCA (site TCCGAGACTTG)	1.34
TCCGAGACTTGGGTTCTAACCTGTTGCCC (site TCCGAGACTAG)	0.146
TCCGAGACTTGGGTTCTAACCTGTTGCCC (site TCCGAGACTCG)	0.338
TCCGAGACTTGGGTTCTAACCTGTTGCCC (site TCCGAGACTGG)	1.08
TCCGAGACTTGGGTTCTAACCTGTTGCCC (site TCCGAGACTTG)	0.0317
TCCGCGACTTGGGTTCTAACCTGTTGCCT (site TCAGCGACTAG)	0.0444
TCCGCGACTTGGGTTCTAACCTGTTGCCT (site TCCGCGACTAG)	0.159
TCCGCGACTTGGGTTCTAACCTGTTGCCT (site TCGGCGACTAG)	0.453
TCCGCGACTTGGGTTCTAACCTGTTGCCT (site TCTGCGACTAG)	0.17
TCCGCTGCTTGGGTTCTAACCTGTTGCCT (site TCCGCTACTAG)	0.151
TCCGCTGCTTGGGTTCTAACCTGTTGCCT (site TCCGCTCCTAG)	0.0574
TCCGCTGCTTGGGTTCTAACCTGTTGCCT (site TCCGCTGCTAG)	0.283

Sequence	recombinant barcode read abundance (log10)
TCCGCTGCTTGGGTTCTAACCTGTTGCCT (site TCCGCTTCTAG)	0.00679
TCCGGTACTTGGGTTCTAACCTGTTGCAT (site TCCAGTACTAT)	0.369
TCCGGTACTTGGGTTCTAACCTGTTGCAT (site TCCCGTACTAT)	0.0823
TCCGGTACTTGGGTTCTAACCTGTTGCAT (site TCCGGTACTAT)	0.849
TCCGGTACTTGGGTTCTAACCTGTTGCAT (site TCCTGTACTAT)	0.114
TCCGTCCCTTGGGTTCTAACCTGTTGCTG (site TCCGTACCTCG)	0.0427
TCCGTCCCTTGGGTTCTAACCTGTTGCTG (site TCCGTCCCTCA)	1.57
TCCGTGCCTTGGGTTCTAACCTGTTGCCT (site TCCGTGACTAG)	0.00917
TCCGTGCCTTGGGTTCTAACCTGTTGCCT (site TCCGTGCCTAG)	0.598
TCCGTGCCTTGGGTTCTAACCTGTTGCCT (site TCCGTGGCTAG)	0.304
TCCGTGCCTTGGGTTCTAACCTGTTGCCT (site TCCGTGTCTAG)	0.17
TCCGTTACTTGGGTTCTAACCTGTTGCCG (site CAGCAGCCTAA)	0.086
TCCGTTACTTGGGTTCTAACCTGTTGCCG (site TCCGTTACTCG)	0.336
TCCTCTCCTTGGGTTCTAACCTGTTGCTT (site TCCTCTCCTAA)	0.118
TCCTCTCCTTGGGTTCTAACCTGTTGCTT (site TGCCCTCCTAA)	0.0451
TCCTGGCCTTGGGTTCTAACCTGTTGCCT (site TCCAGGGCTAG)	0.209
TCCTGGCCTTGGGTTCTAACCTGTTGCCT (site TCCTGGCCTAG)	0.117
TCCTGTCCTTGGGTTCTAACCTGTTGCAT (site TCCTGTACTAG)	0.0187
TCCTGTCCTTGGGTTCTAACCTGTTGCAT (site TCCTGTCCTAT)	0.467
TCCTGTGCTTGGGTTCTAACCTGTTGCCT (site TCCTGTGCTAG)	0.254
